We go through six molecules from patent publication US20160251702A1, “Process and Kit for Predicting Antibiotic Resistance and Susceptibility of Bacteria” (priority 2015, published 2016).

Where two headings read alike, the source gives them in different places.

What all share (type): cell-based
One experiment has as its system Escherichia coli. Kind of experiment: Disk diffusion susceptibility of the reference set of clinical E. coli isolates split by 7-SNP typing. The note with it: for prevalence of resistance: total E. coli study population. As for the experimental part:
This example illustrates setting up a reference database consisting of 2,559 random single-patient clinical E. coli isolates of primarily extra-intestinal origin, at eight international clinical microbiology laboratories. […] Conventional MLST (multi-locus sequence typing) was performed either in full using the standard scheme of 7 MLST loci (adk, fumC, gyrB, icd, mdh, purA, and recA) (Wirth et al., 2006. Sex and virulence in Escherichia coli: an evolutionary perspective. Mol, Microbiol, 60:1136-1151.) or as a combination of partial MLST and fumC/fimH typing, as described previously (Tchesnokova et al. 2013. Predictive diagnostics for Escherichia coli infections based on the clonal association of antimicrobial resistance and clinical outcome. J. Clin. Microbiol. 51:2991-2999). Some ST complexes, as identified by the eBURST v3 software, were defined operationally as a single ‘ST’ and were designated based on the ST identified as the cluster's founder (see Table 5) (Feil et al. 2004. eBURST: inferring patterns of evolutionary descent among clusters of related bacterial genotypes from multilocus sequence typing data. J. Bacteriol. 186:1518-1530).
Susceptibility to seven antibiotics was determined using a standardized disk diffusion method according to Clinical and Laboratory Standards Institute guidelines.
Background: In agar diffusion tests the substance spreads into inoculated agar from a disc or well.

Experiment [1] relates to E. coli. Kind of experiment: Antibiotic resistance of the HMO reference collection of E. coli (Lookup Table). The note with it: Reference set isolates (1227, 2010-2013). The protocol: Both septatypes/clonotypes and antimicrobial profiles were identified.
In total, 1227 E. coli isolated from the HMO (Group Health) clinical lab in 2010-2013 were analyzed. All had their clonotype type determined and resistance to antibiotics tested. Septatypes were deduced from CH types (clonotypes). Red indicates resistance >30%. Yellow: more than 15% but less than 30%. Green: less than 15%.

In experiment [2] the test system is E. coli. Kind of experiment: Antibiotic resistance of E. coli isolates from the field trial (Group Health Urgent Care). The note with it: for overall resistance level: Field trial isolates; for Resistance rate in GH UC E. coli: field trial, Group Health Urgent Care. As for the experimental part:
The disclosed test kit and process was conducted on urinalysis-positive urine samples on-site at the HMO urgent care clinical laboratory. All urine samples obtained at Urgent Care facility were tested by the 7-SNP-based CLT(clonotyping) test and by a standard E. coli culturing test.
In total, 750 urinalysis-positive samples from the HMO urgent care lab were processed in CLT test and standard culturing test.
The E. coli clonotypes identified in the field study (out of 750 samples, see above) were compared to a reference collection of E. coli to (1) compare the clonotypes distribution, (2) compare the overall resistance profile, and (3) use the reference collection to predict if antibiotics can or cannot be allowed for use in each case in the field study (as a Lookup Table). Further, the prediction from (3) was compared to actual resistance of individual isolates and to clinical data regarding the prescription of antibiotics in each case. From this we can see if the implementation of the CLT test would improve the choice of antibacterial therapy.
For clone-based prediction of bacterial resistance of field study isolates we used a 15% resistance as a cutoff for rejection of an antibiotic.

Experiment [3] deals with E. coli. Kind of experiment: CH clonotypes correlated with antibiotic susceptibility profiles of urine E. coli isolates. From the text:
This example illustrates a high-resolution fumC/fimH (CH) clonotyping scheme for E. coli based on sequence variations within these highly-variable omnipresent genes for fumarase and fimbrial adhesin of E. coli, respectively. We correlated CH clonotypes with antibiotic susceptibility profiles among 1,600 urine E. coli isolates from clinical microbiology laboratories in Seattle (Group Health, UW, Harborview, and Children's Hospitals), Minneapolis (VA Medical Center), and Munster, Germany (University Clinic).
We next determined how knowledge of cumulative clonotype vs. overall (species) antibiogram could reduce potential ‘drug-bug’ mismatches during empirical antibiotic selection. We used the IDSA-recommended 80% susceptibility cutoff level to allow the use of specific antibiotic for each clonotype.

The subject of experiment [4] is E. coli. As for the experimental part: This example illustrates implementation of clonal testing in a healthcare community microbiology laboratory. We assessed the presence of E. coli sub-strains ST131 and ST69 (n=619) E. coli positive cultures. […] The tests were conducted to identify ST69 of ST131 genes specific to each clonotype on bacterial DNA isolated from patient urine specimens using RT-PCR instrumentation.

In the case of `O=C1CN(/N=C/c2ccc([N+](=O)[O-])o2)C(=O)N1` [nitrofurantoin], in the experiment on Escherichia coli, the prevalence of resistance was found to be 11%. This molecule had an overall resistance level in the experiment with E. coli [1] of 1.3. Moreover, in the experiment on E. coli [2], the overall resistance level came out at 2.9 and the “Resistance rate in GH UC E. coli” value worked out at 2.9%.
In the experiment on E. coli [3] (1,600 urine E. coli isolates), `Cc1nnc(SCC2=C(C(=O)O)N3C(=O)[C@@H](NC(=O)Cn4cnnn4)[C@H]3SC2)s1` [cefazolin] had a Total resistant of 19.7%. In the experiment on E. coli [3] (isolates of clonotypes allowed for treatment), the “% Resistant among Allowed” value was 10.7%. Further, in the experiment with E. coli [3] (isolates of clonotypes rejected for treatment), the “% Resistant among Rejected” value is 32.0%. The prevalence of resistance in the experiment with Escherichia coli is 23%. Also, the overall resistance level with E. coli [1] was 15.5; in the experiment with E. coli [2], 12.2.
As for `CO/N=C(\C(=O)N[C@@H]1C(=O)N2C(C(=O)O)=C(CSc3nc(=O)c(=O)[nH]n3C)CS[C@H]12)c1csc(N)n1` [ceftriaxone], the prevalence of resistance in the experiment on Escherichia coli amounted to 9%. The overall resistance level worked out at 3.7 in the experiment on E. coli [1] and 4.8 in the experiment on E. coli [2].
For the molecule trimethoprim/sulfamethoxazole, the resistant result in the experiment on E. coli [4] (clonotype ST69) and in the experiment on E. coli [4] (clonotype ST131) was “greater than 40%” throughout. The Resistance in the experiment on E. coli [4] (study group, n=619 E. coli positive cultures) is on record as 15%. Moreover, the figures for the resistance in words result in the experiment on Escherichia coli (septatype 261 (ST69)), in the experiment with Escherichia coli (septatype 560 (ST131-H41)) and in the experiment on Escherichia coli (septatype 561 (ST131-H30)) were “highly susceptible”, “highly resistant” and “highly resistant”, respectively. Besides, in the experiment on Escherichia coli, the prevalence of resistance was 28%. Besides, the values for the overall resistance level in the experiment on E. coli [1] and in the experiment on E. coli [2] were 21.4 and 25.8, respectively. In addition, the “Resistance rate in GH UC E. coli” value with E. coli [2] is 25.7%.
For amoxicillin/clavulanate, the prevalence of resistance in the experiment with Escherichia coli stood at 28%. Moreover, the overall resistance level in the experiment on E. coli [1] is recorded as 15.4. Besides, in the experiment on E. coli [2], the overall resistance level came to 21.2 and the “Resistance rate in GH UC E. coli” value amounted to 25.6%.
For the molecule `CC1(C)S[C@@H]2[C@H](NC(=O)[C@H](N)c3ccccc3)C(=O)N2[C@H]1C(=O)O` [Ampicillin, ampicillin], the overall resistance level stood at 44.7 in the experiment on E. coli [1] and 55.6 in the experiment on E. coli [2].
